{"source": "the supplement of paper PMC11208160"}
{"experiment": "recombinant barcode read abundance after kanamycin selection (control-corrected) (log10(CPM+1)); higher = more efficient recombination; sequences stand for … in AGTGCAGAGAAAATCGGCCAGTTTTCTCTGCCTGCAGTCCGCATGCCGT…AGATTTATGCAGCGGACTGCCTTTCTCCCAAAGTGATAAACCGGACAGTATCATGGACCGGTTTTCCCGGTAATCCGTATTTGCAAGGTTGGTTTCACT; site = the 11-nt target", "summary_of_the_method": "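Recombination efficiency draws on barcodes counted at recombinant junctions in a pooled E. coli screen of targets paired with IS621 bridge RNA target-binding loops. The counts were converted to counts per million, averaged and corrected against the chloramphenicol/ampicillin LB agar control, then reported as log10(CPM+1). Selection plates held chloramphenicol/ampicillin/kanamycin with 0.1 mM IPTG, with two replicates per condition.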"}
{"sequence": "CACTGGACTTGGGTTCTAACCTGTTGCCT (site CAATGGACTAG)", "recombinant barcode read abundance (log10)": 0.155}
{"sequence": "CACTGGACTTGGGTTCTAACCTGTTGCCT (site CACTGGACTAG)", "recombinant barcode read abundance (log10)": 1.04}
{"sequence": "CACTGGACTTGGGTTCTAACCTGTTGCCT (site CAGTGGACTAG)", "recombinant barcode read abundance (log10)": 0.42}
{"sequence": "CACTGGACTTGGGTTCTAACCTGTTGCCT (site CATTGGACTAG)", "recombinant barcode read abundance (log10)": 0.286}
{"sequence": "CACTTAACTTGGGTTCTAACCTGTTGCCA (site CACTTAACTTG)", "recombinant barcode read abundance (log10)": 0.0764}
{"sequence": "CACTTAACTTGGGTTCTAACCTGTTGCCA (site TGACAGTCTCT)", "recombinant barcode read abundance (log10)": 0.0672}
{"sequence": "CACTTAACTTGGGTTCTAACCTGTTGCCT (site CACTTAACTAG)", "recombinant barcode read abundance (log10)": 0.8}
{"sequence": "CACTTAACTTGGGTTCTAACCTGTTGCCT (site CACTTACCTAG)", "recombinant barcode read abundance (log10)": 0}
{"sequence": "CACTTAACTTGGGTTCTAACCTGTTGCCT (site CACTTAGCTAG)", "recombinant barcode read abundance (log10)": 0.0439}
{"sequence": "CACTTAACTTGGGTTCTAACCTGTTGCCT (site CACTTATCTAG)", "recombinant barcode read abundance (log10)": 0}
{"sequence": "CACTTACCTTGGGTTCTAACCTGTTGCCT (site CACTTAACTAG)", "recombinant barcode read abundance (log10)": 0.0847}
{"sequence": "CACTTACCTTGGGTTCTAACCTGTTGCCT (site CACTTACCTAG)", "recombinant barcode read abundance (log10)": 0.742}
{"sequence": "CACTTACCTTGGGTTCTAACCTGTTGCCT (site CACTTAGCTAG)", "recombinant barcode read abundance (log10)": 0.00951}
{"sequence": "CACTTACCTTGGGTTCTAACCTGTTGCCT (site CACTTATCTAG)", "recombinant barcode read abundance (log10)": 0.0355}
{"sequence": "CACTTAGCTTGGGTTCTAACCTGTTGCCT (site CACTTAACTAG)", "recombinant barcode read abundance (log10)": 0.559}
{"sequence": "CACTTAGCTTGGGTTCTAACCTGTTGCCT (site CACTTACCTAG)", "recombinant barcode read abundance (log10)": 0.181}
{"sequence": "CACTTAGCTTGGGTTCTAACCTGTTGCCT (site CACTTAGCTAG)", "recombinant barcode read abundance (log10)": 0.269}
{"sequence": "CACTTAGCTTGGGTTCTAACCTGTTGCCT (site CACTTATCTAG)", "recombinant barcode read abundance (log10)": 0.0252}
{"sequence": "CACTTGACTTGGGTTCTAACCTGTTGCCT (site CACTTGACTAG)", "recombinant barcode read abundance (log10)": 1.2}
{"sequence": "CACTTGACTTGGGTTCTAACCTGTTGCCT (site CACTTGCCTAG)", "recombinant barcode read abundance (log10)": 0.213}
{"sequence": "CACTTGACTTGGGTTCTAACCTGTTGCCT (site CACTTGGCTAG)", "recombinant barcode read abundance (log10)": 0.137}
{"sequence": "CACTTGACTTGGGTTCTAACCTGTTGCCT (site CACTTGTCTAG)", "recombinant barcode read abundance (log10)": 0.0323}
{"sequence": "CACTTGACTTGGGTTCTAACCTGTTGCTT (site CACTTGACTAA)", "recombinant barcode read abundance (log10)": 0.331}
{"sequence": "CACTTGACTTGGGTTCTAACCTGTTGCTT (site CGCTTGTCTAA)", "recombinant barcode read abundance (log10)": 0.075}
{"sequence": "CACTTGTCTTGGGTTCTAACCTGTTGCCT (site CACTTGACTAG)", "recombinant barcode read abundance (log10)": 0.0529}
{"sequence": "CACTTGTCTTGGGTTCTAACCTGTTGCCT (site CACTTGCCTAG)", "recombinant barcode read abundance (log10)": 0.0539}
{"sequence": "CACTTGTCTTGGGTTCTAACCTGTTGCCT (site CACTTGGCTAG)", "recombinant barcode read abundance (log10)": 0.283}
{"sequence": "CACTTGTCTTGGGTTCTAACCTGTTGCCT (site CACTTGTCTAG)", "recombinant barcode read abundance (log10)": 1.7}
{"sequence": "CAGACGCCTTGGGTTCTAACCTGTTGCAG (site CACACTCCTCT)", "recombinant barcode read abundance (log10)": 0.039}
{"sequence": "CAGACGCCTTGGGTTCTAACCTGTTGCAG (site CAGACGCCTCT)", "recombinant barcode read abundance (log10)": 1.38}
{"sequence": "CAGACTCCTTGGGTTCTAACCTGTTGCCT (site CAGACTCCTAG)", "recombinant barcode read abundance (log10)": 0.214}
{"sequence": "CAGACTCCTTGGGTTCTAACCTGTTGCCT (site TAGACTACTAG)", "recombinant barcode read abundance (log10)": 0.186}
{"sequence": "CAGAGCACTTGGGTTCTAACCTGTTGCCT (site AAGAGCACTAG)", "recombinant barcode read abundance (log10)": 0.107}
{"sequence": "CAGAGCACTTGGGTTCTAACCTGTTGCCT (site CAGAGCACTAG)", "recombinant barcode read abundance (log10)": 1.2}
{"sequence": "CAGAGCACTTGGGTTCTAACCTGTTGCCT (site GAGAGCACTAG)", "recombinant barcode read abundance (log10)": 0.185}
{"sequence": "CAGAGCACTTGGGTTCTAACCTGTTGCCT (site TAGAGCACTAG)", "recombinant barcode read abundance (log10)": 0.138}
{"sequence": "CAGAGTACTTGGGTTCTAACCTGTTGCCT (site CACAGTGCTAG)", "recombinant barcode read abundance (log10)": 0.0547}
{"sequence": "CAGAGTACTTGGGTTCTAACCTGTTGCCT (site CAGAGTACTAG)", "recombinant barcode read abundance (log10)": 0.216}
{"sequence": "CAGAGTCCTTGGGTTCTAACCTGTTGCTT (site CAGAGTCCTAA)", "recombinant barcode read abundance (log10)": 1.59}
{"sequence": "CAGAGTCCTTGGGTTCTAACCTGTTGCTT (site CATAGTCCTAG)", "recombinant barcode read abundance (log10)": 0.105}
{"sequence": "CAGCACCCTTGGGTTCTAACCTGTTGCGG (site CAGCACCCTCC)", "recombinant barcode read abundance (log10)": 0.515}
{"sequence": "CAGCACCCTTGGGTTCTAACCTGTTGCGG (site CGGTACCCTCC)", "recombinant barcode read abundance (log10)": 0.13}
{"sequence": "CAGCAGCCTTGGGTTCTAACCTGTTGCTT (site CAGCAGCCTAA)", "recombinant barcode read abundance (log10)": 0.742}
{"sequence": "CAGCAGCCTTGGGTTCTAACCTGTTGCTT (site TCCGTTACTCG)", "recombinant barcode read abundance (log10)": 0.0126}
{"sequence": "CAGCATCCTTGGGTTCTAACCTGTTGCAG (site ATCACGTCTAG)", "recombinant barcode read abundance (log10)": 0.157}
{"sequence": "CAGCATCCTTGGGTTCTAACCTGTTGCAG (site CAGCATCCTCT)", "recombinant barcode read abundance (log10)": 1.11}
{"sequence": "CAGCGGCCTTGGGTTCTAACCTGTTGCCT (site CAGAGGCCTAG)", "recombinant barcode read abundance (log10)": 0.191}
{"sequence": "CAGCGGCCTTGGGTTCTAACCTGTTGCCT (site CAGCGGCCTAG)", "recombinant barcode read abundance (log10)": 0.288}
{"sequence": "CAGCGGCCTTGGGTTCTAACCTGTTGCCT (site CAGGGGCCTAG)", "recombinant barcode read abundance (log10)": 0.121}
{"sequence": "CAGCGGCCTTGGGTTCTAACCTGTTGCCT (site CAGTGGCCTAG)", "recombinant barcode read abundance (log10)": 0.718}
{"sequence": "CAGGACCCTTGGGTTCTAACCTGTTGCCT (site CAAGACCCTAG)", "recombinant barcode read abundance (log10)": 1.93}
{"sequence": "CAGGACCCTTGGGTTCTAACCTGTTGCCT (site CACGACCCTAG)", "recombinant barcode read abundance (log10)": 0.437}
{"sequence": "CAGGACCCTTGGGTTCTAACCTGTTGCCT (site CAGGACCCTAG)", "recombinant barcode read abundance (log10)": 2.18}
{"sequence": "CAGGACCCTTGGGTTCTAACCTGTTGCCT (site CATGACCCTAG)", "recombinant barcode read abundance (log10)": 0.409}
{"sequence": "CAGGATGCTTGGGTTCTAACCTGTTGCCT (site CAAGATGCTAG)", "recombinant barcode read abundance (log10)": 0.731}
{"sequence": "CAGGATGCTTGGGTTCTAACCTGTTGCCT (site CACGATGCTAG)", "recombinant barcode read abundance (log10)": 0.0431}
{"sequence": "CAGGATGCTTGGGTTCTAACCTGTTGCCT (site CAGGATGCTAG)", "recombinant barcode read abundance (log10)": 1.35}
{"sequence": "CAGGATGCTTGGGTTCTAACCTGTTGCCT (site CATGATGCTAG)", "recombinant barcode read abundance (log10)": 0.0284}
{"sequence": "CAGGCGTCTTGGGTTCTAACCTGTTGCAC (site CAGGCGTCTGT)", "recombinant barcode read abundance (log10)": 1.12}
{"sequence": "CAGGCGTCTTGGGTTCTAACCTGTTGCAC (site GAGGGGTCTGT)", "recombinant barcode read abundance (log10)": 0.142}
{"sequence": "CAGGGCCCTTGGGTTCTAACCTGTTGCCT (site AAGGGCCCTAG)", "recombinant barcode read abundance (log10)": 0.329}
{"sequence": "CAGGGCCCTTGGGTTCTAACCTGTTGCCT (site CAGGGCCCTAG)", "recombinant barcode read abundance (log10)": 2.14}
{"sequence": "CAGGGCCCTTGGGTTCTAACCTGTTGCCT (site GAGGGCCCTAG)", "recombinant barcode read abundance (log10)": 0.527}
{"sequence": "CAGGGCCCTTGGGTTCTAACCTGTTGCCT (site TAGGGCCCTAG)", "recombinant barcode read abundance (log10)": 0.397}
{"sequence": "CAGGGGACTTGGGTTCTAACCTGTTGCCA (site CAGGGGACTTG)", "recombinant barcode read abundance (log10)": 1.04}
{"sequence": "CAGGGGACTTGGGTTCTAACCTGTTGCCA (site CCGTGGACTTG)", "recombinant barcode read abundance (log10)": 0.217}
{"sequence": "CAGGGGCCTTGGGTTCTAACCTGTTGCCT (site CAGAGGCCTAG)", "recombinant barcode read abundance (log10)": 0.0366}
{"sequence": "CAGGGGCCTTGGGTTCTAACCTGTTGCCT (site CAGCGGCCTAG)", "recombinant barcode read abundance (log10)": 0.187}
{"sequence": "CAGGGGCCTTGGGTTCTAACCTGTTGCCT (site CAGGGGCCTAG)", "recombinant barcode read abundance (log10)": 1.97}
{"sequence": "CAGGGGCCTTGGGTTCTAACCTGTTGCCT (site CAGTGGCCTAG)", "recombinant barcode read abundance (log10)": 0.185}
{"sequence": "CAGGTACCTTGGGTTCTAACCTGTTGCAG (site CAGGTACCTAT)", "recombinant barcode read abundance (log10)": 0.368}
{"sequence": "CAGGTACCTTGGGTTCTAACCTGTTGCAG (site CAGGTACCTCT)", "recombinant barcode read abundance (log10)": 3.12}
{"sequence": "CAGGTGCCTTGGGTTCTAACCTGTTGCCT (site CAGGTGCCTAG)", "recombinant barcode read abundance (log10)": 2.25}
{"sequence": "CAGGTGCCTTGGGTTCTAACCTGTTGCCT (site CCGGTGCCTAG)", "recombinant barcode read abundance (log10)": 0.216}
{"sequence": "CAGGTGCCTTGGGTTCTAACCTGTTGCCT (site CGGGTGCCTAG)", "recombinant barcode read abundance (log10)": 0.122}
{"sequence": "CAGGTGCCTTGGGTTCTAACCTGTTGCCT (site CTGGTGCCTAG)", "recombinant barcode read abundance (log10)": 0.526}
{"sequence": "CAGTAGTCTTGGGTTCTAACCTGTTGCCT (site CAGTAATCTAG)", "recombinant barcode read abundance (log10)": 0.579}
{"sequence": "CAGTAGTCTTGGGTTCTAACCTGTTGCCT (site CAGTACTCTAG)", "recombinant barcode read abundance (log10)": 0.155}
{"sequence": "CAGTAGTCTTGGGTTCTAACCTGTTGCCT (site CAGTAGTCTAG)", "recombinant barcode read abundance (log10)": 1.07}
{"sequence": "CAGTAGTCTTGGGTTCTAACCTGTTGCCT (site CAGTATTCTAG)", "recombinant barcode read abundance (log10)": 0.0913}
{"sequence": "CAGTATTCTTGGGTTCTAACCTGTTGCCT (site CAGTAATCTAG)", "recombinant barcode read abundance (log10)": 0.0186}
{"sequence": "CAGTATTCTTGGGTTCTAACCTGTTGCCT (site CAGTACTCTAG)", "recombinant barcode read abundance (log10)": 0.116}
{"sequence": "CAGTATTCTTGGGTTCTAACCTGTTGCCT (site CAGTAGTCTAG)", "recombinant barcode read abundance (log10)": 0.0496}
{"sequence": "CAGTATTCTTGGGTTCTAACCTGTTGCCT (site CAGTATTCTAG)", "recombinant barcode read abundance (log10)": 0.702}
{"sequence": "CAGTCTACTTGGGTTCTAACCTGTTGCGT (site CAGTCTACTAC)", "recombinant barcode read abundance (log10)": 0.308}
{"sequence": "CAGTCTACTTGGGTTCTAACCTGTTGCGT (site TCAAGCCCTCT)", "recombinant barcode read abundance (log10)": 0.292}
